The results in this text go back to the SangsterLogP compilation.

Each structure is given as a SMILES string.

The first data set can be described thus: method code SF-HPLC, from DOI: 10.1248/cpb.43.1894.
The term logP denotes the decadic logarithm of the partition coefficient of the neutral form, usually between octanol and water. The low end stands for a more hydrophilic compound, the high end for a more lipophilic compound. `S=C1CCCC1=C1SCCS1` had a lipophilicity (logP) of 3.12.
The same measure, in the same setting: the same measure for `CSC(=S)c1ccccc1SC`: 3.74.
Still for that read-out and setting: the same measure for `CC(C)C(=O)c1ccccc1`: 2.59.
Same read-out and setting: the same measure for `CSC(=S)C(C)(C)C(=O)c1ccccc1`: 3.9; for `CSC1=CCCCC1`: 3.3.
For the compound `CSC(=S)C1=C(SC)CCCC1`, the logP was 3.81.
Still for that read-out and setting: the same measure for `CSC(=S)C(C)(C)C(C)=O`: 2.8.

Assay in a further data set: not given
Compound `NS(=O)(=O)c1cc(Cl)ccc1Cl` gave a logP of 1.65.
In turn, `NS(=O)(=O)c1ccc([N+](=O)[O-])cc1[N+](=O)[O-]` showed a logP of 0.3.
Regarding `CN(C)c1cccc2c(S(N)(=O)=O)cccc12`, the logP was determined as 1.83.
The same measure, in the same setting: the same measure for `NS(=O)(=O)c1ccccc1[N+](=O)[O-]`: 0.4.
On the same count and under the same terms, the same measure for `NS(=O)(=O)c1ccc([N+](=O)[O-])cc1`: 0.58; for `CC(C)CN[C@H]1CCS(=O)(=O)c2sc(S(N)(=O)=O)cc21`: -0.03; for `NS(=O)(=O)c1cc(C(=O)O)cc(N2CCCC2)c1Oc1ccccc1`: 3.27.

Assay in the next data set: not given
The source holds these as a separate data set.
`N#Cc1cc(-c2ccncc2)cnc1N1CCN(CCO)CC1` yielded a logP of 2.14.
Turning to `Cc1nc(N2CCNCC2)c(C#N)cc1-c1ccccc1`, the logP turned out to be 3.15.
Compound `N#Cc1cc(-c2ccncc2)cnc1N1CCNCC1` returned a logP of 2.51.
Still for that read-out and setting: the same measure for `N#Cc1cc(-c2ccncc2)cnc1NCCN`: 1.93; for `CCN(CC)CCCNc1ncc(-c2ccncc2)cc1C#N`: 2.56; for `Cc1nc(N2CCNCC2)c(C#N)cc1-c1ccncc1`: 2.96.
Still for that read-out and setting: the same measure for `N#Cc1cc(-c2ccncc2)cnc1NCCCN1CCOCC1`: 2.43.

Assay in the next data set: not given
The source holds these as a separate data set.
Regarding `CCOP(=S)(OCC)SCCSCC`, the log partition coefficient (logP) amounted to 3.84.
The same measure, in the same setting: the same measure for `Cc1ccc(S(=O)(=O)Oc2c(C(=O)c3ccc(Cl)cc3Cl)c(C)nn2C)cc1`: 3.9; for `CCCOP(=S)(OCCC)SCC(=O)N1CCCCC1C` (stereo not drawn): 4.04.
Same read-out and setting: the same measure for `COP1(=S)OCc2ccccc2O1` (stereo not drawn): 2.12; for `CCOC(=O)C(SP(=S)(OC)OC)c1ccccc1` (stereo not drawn): 3.32; for `CCN(OC(=O)c1ccccc1)C(=O)c1c(OC)ccc(Cl)c1OC`: 3.73.
Take `CCCOP(=O)(OCCC)Oc1ccc(SC)cc1`: the logP stood at 3.44.

A short description of a further data set: method code SF-HPLC, from DOI: 10.1002/ps.2780220406.
Regarding `COc1ccc(Cn2cncn2)cc1`, the logP is 1.1.
Same read-out and setting: the same measure for `Fc1ccc(Cn2cncn2)cc1`: 1.1; for `c1ccc(Cn2cncn2)cc1`: 0.92.
`Clc1ccc(Cn2cncn2)cc1`: the logP is 1.84.
The compound `CCCCc1ccc(Cn2cncn2)cc1` showed a logP of 2.81.
Same read-out and setting: the same measure for `FC(F)(F)c1cccc(Cn2cncn2)c1`: 1.74.

Another data set can be described thus: method code SF-HPLC, from DOI: 10.3109/14756366.2013.845817, PMID: 24156741.
In the case of `C#CCn1cc(C(=O)NC(c2ccccc2)C(O)C(=O)Nc2ccccn2)c(=O)c2cccnc21` (stereo not drawn), the logP stood at 4.02.
The same measure, in the same setting: the same measure for `C#CCn1cc(C(=O)NC(CC(=O)Nc2ccccc2)c2ccccc2)c(=O)c2ccc(Cl)nc21` (stereo not drawn): 5.41; for `C#CCn1cc(C(=O)NC(CC(=O)NC2CCCC2)c2ccccc2)c(=O)c2cc(F)c(Cl)nc21` (stereo not drawn): 5.96; for `C#CCn1cc(C(=O)NC(c2ccccc2)C(O)C(=O)Nc2ccccn2)c(=O)c2cc(F)c(Cl)nc21` (stereo not drawn): 5.32.
Still for that read-out and setting: the same measure for `C#CCn1cc(C(=O)NC(c2ccccc2)C(O)C(=O)NC2CCCC2)c(=O)c2cc(F)c(Cl)nc21` (stereo not drawn): 5.82; for `C#CCn1cc(C(=O)NC(c2ccccc2)C(O)C(=O)NC2CCCCC2)c(=O)c2ccc(Cl)nc21` (stereo not drawn): 5.14.
`C#CCn1cc(C(=O)NC(c2ccccc2)C(O)C(=O)Nc2ccccc2)c(=O)c2cccnc21` (stereo not drawn): the logP worked out at 4.25.

A short description of another data set: method code SF-AS, from DOI: 10.1007/s001289900721, PMID: 9657823.
In the case of `CC(C)OC(=O)COc1ccc(C=O)cc1`, the logP is 1.88.
The same measure, in the same setting: the same measure for `O=Cc1cc(Br)ccc1Br`: 3.35; for `O=Cc1cc(O)cc(Br)c1`: 2.5.
On the same count and under the same terms, the same measure for `CCOc1ccc(C=O)cc1OC`: 1.63; for `O=Cc1cccc(O)c1`: 1.29; for `O=Cc1ccc(O)c(Br)c1`: 1.83.
On to `COc1cc(C=O)cc(OC)c1OC`, for which the logP was 1.39.
